# Results: US8168632B2, “Bicyclic amide derivatives for the treatment of respiratory disorders” (Cortex Pharmaceuticals, Inc., priority 2007, dated 2012)
# Test system: AMPA receptor
# Assay: In vivo electrophysiology (field EPSP in dentate gyrus of anesthetized animals)
# Conditions: 10 mpk i.p., perforant path stimulation
# Protocol: The electrophysiological effects of the invention compounds were tested in vivo in anesthetized animals according to the following procedures. Animals are maintained under anesthesia by phenobarbital administered using a Hamilton syringe pump. Stimulating and recording electrodes are inserted into the perforant path and dentate gyrus of the hippocampus, respectively. Once electrodes are implanted, a stable baseline of evoked responses are elicited using single monophasic pulses (100 μs pulse duration) delivered at 3/min to the stimulating electrode. Field EPSPs are monitored until a stable baseline is achieved (about 20-30 min), after which a solution of test compound is injected intraperitoneally and evoked field potentials are recorded. Evoked potentials were recorded for approximately 2 h following drug administration or until the amplitude of the field EPSP returns to baseline. In the latter instance, it is common that an iv administration is also carried out with an appropriate dose of the same test compound. Invention compounds were assayed in the in vivo electrophysiology assay described above and data for representative test compounds is shown in the Table.
# The electrophysiological effects of invention compounds were tested in vivo in anesthetized animals according to the following procedures.
# Animals are maintained under anesthesia by phenobarbital administered using a Hamilton syringe pump. Stimulating and recording electrodes are inserted into the perforant path and dentate gyrus of the hippocampus, respectively. Once electrodes are implanted, a stable baseline of evoked responses are elicited using single monophasic pulses (100 μs pulse duration) delivered at 3/min to the stimulating electrode. Field EPSPs are monitored until a stable baseline is achieved (about 20-30 min), after which a solution of test compound is injected intraperitoneally and evoked field potentials are recorded. Evoked potentials are recorded for approximately 2 h following drug administration or until the amplitude of the field EPSP returns to baseline. […]
row,SMILES,In vivo Electrophysiology: % increase in the amplitude of the field EPSP in the dentate gyrus of rat [%]
1,"O=C(c1ccc2nonc2c1)N1C2CCC1COC2 [Example 1, [2,1,3]-Benzoxadiazol-5-yl(3-oxa-8-azabicyclo[3.2.1]oct-8-yl)methanone]",17
2,"O=C(c1ccc2nonc2c1)N1C2CCCC1COC2 [Example 2, [2,1,3]-Benzoxadiazol-5-yl(3-oxa-9-azabicyclo[3.3.1]non-9-yl)methanone]",16
3,"O=C(c1ccc2nonc2c1)N1C2COCC1COC2 [Example 3, [2,1,3]-Benzoxadiazol-5-yl(3,7-dioxa-9-azabicyclo[3.3.1]non-9-yl)methanone]",15
